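1) Cells in 96-well plates. 2) Compound, 48 h, 5 concentrations. 3) Linear interpolation between surrounding doses. 4) Unreached endpoint = highest concentration. GI50 is the concentration that inhibits growth by half. The concentration for full growth arrest is given as TGI.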
What was measured:
Test in all cases: DTP human tumour cell line panel, 48 h
RXF 393 renal = tested on: RXF 393 renal
HCT-15 colon = tested on: HCT-15 colon
EKVX NSCLC = tested on: EKVX NSCLC
SF-268 CNS = tested on: SF-268 CNS
HL-60(TB) leukemia = tested on: HL-60(TB) leukemia
OVCAR-8 ovarian = tested on: OVCAR-8 ovarian
MOLT-4 leukemia = tested on: MOLT-4 leukemia
ACHN renal = tested on: ACHN renal
A549 NSCLC = tested on: A549 NSCLC

| SMILES | TGI (RXF 393 renal) [µM] | TGI (HCT-15 colon) [µM] | TGI (EKVX NSCLC) [µM] | TGI (SF-268 CNS) [µM] | TGI (HL-60(TB) leukemia) [µM] | TGI (OVCAR-8 ovarian) [µM] | TGI (MOLT-4 leukemia) [µM] | GI50 (RXF 393 renal) [µM] | GI50 (HCT-15 colon) [µM] | GI50 (EKVX NSCLC) [µM] | GI50 (SF-268 CNS) [µM] | GI50 (HL-60(TB) leukemia) [µM] | GI50 (OVCAR-8 ovarian) [µM] | GI50 (MOLT-4 leukemia) [µM] | GI50 (ACHN renal) [µM] | TGI (ACHN renal) [µM] | GI50 (A549 NSCLC) [µM] | TGI (A549 NSCLC) [µM] |
| --- | --- | --- | --- | --- | --- | --- | --- | --- | --- | --- | --- | --- | --- | --- | --- | --- | --- | --- |
| CN(C)CCNC(=O)c1cccc2ccc(-c3ccncc3)nc12 | 7.85 | 11.9 | 13.4 | 21.7 | 7.59 | > 100 | 1.37 | – | – | – | – | – | – | – | – | – | – | – |
| CCCCCCCC(=O)OCC/C=C/C1OC1C1OC(=O)/C=C\C=C\c2nc(oc2C)/C=C(/C)CCC2OC2C1OC(=O)NC(C)=O (stereo unspecified) | 0.0562 | 8.88 | 1.64 | 1.74 | 2.07 | 0.826 | 1.81 | 0.0184 | 0.0558 | 0.0419 | 0.0401 | 0.114 | 0.028 | 0.047 | 0.0103 | 0.933 | 0.026 | 2.64 |
| COC1(OC)CC2OC1C1N=NN(C(=O)OC(C)(C)C)C21 (stereo unspecified) | > 100 | > 100 | – | > 100 | 81.6 | – | > 100 | – | – | – | – | – | – | – | – | > 100 | – | > 100 |
| CC/C=C\C[C@H](F)C/C=C1/C(=O)C=C[C@@H]1C/C=C\CCCC(=O)O | 10.2 | 13.8 | 25.1 | 22.4 | 16.8 | 5.71 | 12 | 5.19 | 4.45 | 7.59 | 6.55 | 3.41 | 1.21 | 1.14 | 4.99 | 9.85 | 7.3 | 18.8 |
| COc1ccc(-c2onc(N)c2-c2cc(OC)c3c(c2)OCO3)cc1 | 19 | > 100 | > 100 | > 100 | 7.53 | > 100 | > 65.5 | 2.71 | 0.958 | 6.58 | 8.58 | 1.87 | 4.22 | 1.93 | 6.39 | > 100 | 2.95 | > 100 |
| Cc1ccc2c(c1)Sc1c(ccc3ccccc13)N2 | > 100 | > 100 | > 100 | > 100 | > 100 | > 100 | > 100 | > 100 | 1.45 | > 100 | 69.2 | 34.2 | 35 | 6.82 | 55.5 | > 100 | 92.8 | > 100 |
| O=C1c2cccc([N+](=O)[O-])c2C(=O)N1c1ncn[nH]1 | > 100 | > 100 | > 100 | > 100 | > 100 | > 100 | > 100 | – | – | – | – | – | – | – | – | > 100 | – | > 100 |
| O=C(O)CCSC(=O)Nc1ccc([N+](=O)[O-])cc1 | > 100 | > 100 | > 100 | > 100 | > 100 | > 100 | > 100 | – | – | – | – | – | – | – | – | > 100 | – | > 100 |
| O=C(CCc1nnc2sc(-c3ccc(Cl)cc3Cl)nn12)c1nc2ccccc2[nH]1 | 1.04 | 2.77 | 5.92 | 2.85 | 5.52 | > 23.4 | – | 0.394 | 0.452 | 1.93 | 0.994 | 1.24 | 1.48 | 0.29 | 0.337 | 1.29 | 1.88 | 4.96 |
| O=C(CC1(O)C(=O)Nc2c(Cl)ccc(Cl)c21)c1ccc(F)cc1 (stereo unspecified) | 92.2 | > 100 | > 100 | > 100 | 58.2 | > 100 | 95.6 | – | – | – | – | – | – | – | – | > 100 | – | > 100 |
| CC/C=C\C[C@@H](O)C/C=C1/C(=O)C=C[C@H]1C/C=C\CCCC(=O)OC | 3.55 | 7.47 | 21.1 | 15.3 | 5.48 | 10.4 | 5.83 | 1.85 | 2.49 | 9.14 | 3.92 | 1.96 | 3.26 | 2.06 | 1.97 | 4.02 | 3.75 | 10.7 |
| COc1ccc2nc3c(C(=O)NCCN(C)C)cccc3nc2c1 | > 1 | 16.6 | 15.7 | 48.5 | > 100 | > 100 | > 100 | – | – | – | – | – | – | – | – | > 100 | – | > 100 |
| CCOC(=O)/C(C#N)=C/c1[nH]c(C(=O)OCc2ccccc2)c(C)c1C | > 100 | > 100 | > 100 | > 100 | > 100 | > 100 | > 100 | – | – | – | – | – | – | – | – | > 100 | – | > 100 |

From PubChem BioAssay (NCI)
